# Results from US20240334934A1, “FUNGICIDE MIXTURE” (priority 2021, published 2024).
# Tests used:
# Monographella nivalis = assay: Efficacy of purified CtmC in-vitro, microtiter plate growth inhibition; type: cell-based; conditions: rate 10 ppm; 72 hrs at 24° C.
# Method: (§1) CtmC was dissolved in DMSO (Dimethylsulfoxid) to a final concentration of 1000 ppm to create a stock solution. A second dilutions of 1:10 was made in water+0.025% Tween 20. From this second dilution 10 μl are dispensed into a 96-well plate. To each well, 90 μl of medium with fungal spores are added and mixed, resulting in final CtmC concentrations of 10 ppm. All wells containing CtmC also contain DMSO (1%) and Tween 20 (0.0025%).
# Monographella nivalis (snow mould, foot rot of cereals): Conidia of the fungus from cryogenic storage were directly mixed into nutrient broth (PDB potato dextrose broth). After placing a solution of the test compounds into a microtiter plate (96-well format) the nutrient broth containing the fungal spores was added.
# Phakopsora pachyrhizi = assay: Leaf disc assay, soybean leaf disks, preventive; type: in vivo; conditions: rate 20 ppm, approx. 12 dpi
# Method: A CtmC stock was generated at 1000 ppm in DMSO, then Diluted 1:50 in water+Tween 20 at 0.025% resulting in a 20 ppm solution.
# Phakopsora pachyrhizi (Asian Soybean rust): Soybean leaf disks are placed on agar in multiwell plates (24-well format) and sprayed with test solutions. After drying, the leaf disks are inoculated with a spore suspension of the fungus. After appropriate incubation the activity of a compound is assessed approx. 12 dpi (days after inoculation) as preventive fungicidal activity
# [1] = test system: Gibberella avenacea K6939; assay: Efficacy of purified CtmC alone in-vitro, 96 well plate, OD 620 nm; type: cell-based; conditions: CtmC 10 ppm
# Method: (§2) CtmC was dissolved in DMSO (Dimethylsulfoxid) to a final concentration of 1000 ppm to create a stock solution. A second dilutions of 1:10 was made in water+0.025% Tween 20. From this second dilution 10 μl are dispensed into a 96 well plate. To each well, 90 μl of medium (PDB—potato dextrose broth, plus 0.3% agar) with fungal spores are added and mixed, resulting in final CtmC concentrations of 10 ppm. All wells containing CtmC also contain DMSO (1%) and Tween 20 (0.0025%). In the following table 4 some of the species were tested using several distinct isolates (internal strain number indicated) to understand variability among different isolates of the same species sampled in different locations, producing different mycotoxins (genus Fusarium), or expressing various tolerances to fungicides of the SDHI (Succinate Dehydrogenase Inhibitor), SBI (Sterol Biosynthesis Inhibitors) and/or QoI (quinone outside inhibitors) classes (example: Zymoseptoria tritici). Different isolates had variable inoculum density and number of biological repicas, as indicated.
# [2] = test system: Venturia inaequalis K6222; assay: as above; type: cell-based; conditions: CtmC 10 ppm
# Method: as §2
# Fusarium poae K8039 = assay: as above; type: cell-based; conditions: CtmC 10 ppm
# Method: as §2
# [3] = test system: Rhynchosporium secalis K5917; assay: as above; type: cell-based; conditions: CtmC 10 ppm
# Method: as §2
# Septoria glycines K5204 = assay: as above; type: cell-based; conditions: CtmC 10 ppm
# Method: as §2
# Microdochium majus K7482 = assay: as above; type: cell-based; conditions: CtmC 10 ppm
# Method: as §2
# [4] = test system: Zymoseptoria tritici K7953; assay: as above; type: cell-based; conditions: CtmC 10 ppm
# Method: as §2
# [5] = test system: Cochliobolus sativus K5817; assay: as above; type: cell-based; conditions: CtmC 10 ppm
# Method: as §2
# [6] = test system: Ustilago segetum var. tritici K5349; assay: as above; type: cell-based; conditions: CtmC 10 ppm
# Method: as §2
# [7] = test system: Ramularia collo-cygni K6218; assay: as above; type: cell-based; conditions: CtmC 10 ppm
# Method: as §2
# Fusarium avenaceum K6940 = assay: as above; type: cell-based; conditions: CtmC 10 ppm
# Method: as §2
# Fusarium culmorum K6937 = assay: as above; type: cell-based; conditions: CtmC 10 ppm
# Method: as §2
# [8] = test system: Colletotrichum lindemuthianum K5893; assay: as above; type: cell-based; conditions: CtmC 10 ppm
# Method: as §2
# [9] = test system: Cercospora kikuchii K6080; assay: as above; type: cell-based; conditions: CtmC 10 ppm
# Method: as §2
# [10] = test system: Colletotrichum orbiculare K5770; assay: as above; type: cell-based; conditions: CtmC 10 ppm
# Method: as §2
# Cercospora sojina K5703 = assay: as above; type: cell-based; conditions: CtmC 10 ppm
# Method: as §2
# [11] = test system: Fusarium tricinctum K7452; assay: as above; type: cell-based; conditions: CtmC 10 ppm
# Method: as §2
# [12] = test system: Zymoseptoria tritici K6318; assay: as above; type: cell-based; conditions: CtmC 10 ppm
# Method: as §2
# [13] = test system: Gibberella fujikuroi K5299; assay: as above; type: cell-based; conditions: CtmC 10 ppm
# Method: as §2
# [14] = test system: Monographella nivalis K7484; assay: as above; type: cell-based; conditions: CtmC 10 ppm
# Method: as §2
# Fusarium culmorum K8196 = assay: as above; type: cell-based; conditions: CtmC 10 ppm
# Method: as §2
# Botrytis cinerea = assay: Efficacy of purified CtmC in-vitro, microtiter plate growth inhibition; type: cell-based; conditions: rate 10 ppm; 72 hrs at 24° C.
# Method: as §1
# (§3) Botrytis cinerea (gray mould): Conidia of the fungus from cryogenic storage were directly mixed into nutrient broth (PDB potato dextrose broth). After placing a solution of the test compounds into a microtiter plate (96-well format) the nutrient broth containing the fungal spores was added.
# Zymoseptoria tritici = assay: as above; type: cell-based; conditions: rate 10 ppm; 72 hrs at 24° C.
# Method: as §1
# as §3, with “Zymoseptoria tritici (Septoria leaf blotch):” for “Botrytis cinerea (gray mould):”
smiles,measurement,setting,value
"C=C1NC(=O)CNC(=O)[C@H](CCCCN)NC(=O)[C@@]2(C)NC(=O)/C(=C/C)NC(=O)[C@H]3CSC(=N3)[C@@H](CC(N)=O)CC(=O)c3ccc(nc3[C@@H](C)NC(=O)[C@@H]3CCCN3C1=O)-c1nc(cs1)C1=N[C@H](CS1)C(=O)NC(=C)c1nc(cs1)-c1nc(cs1)C1=N[C@@H](CS1)C(=O)N[C@@H](C(=O)O)CS2 [CtmC, cyclothiazomycin C]",control of fungal growth (%),Monographella nivalis,100%
same,control of fungal growth (%),Phakopsora pachyrhizi,50%
same,efficacy (%),[1],82%
same,optical density at 620 nm,"[1]; blank 0.055, untreated 0.675",0.165
same,efficacy (%),[2],86%
same,optical density at 620 nm,"[2]; blank 0.044, untreated 0.320",0.082
same,efficacy (%),Fusarium poae K8039,62%
same,optical density at 620 nm,"Fusarium poae K8039; blank 0.050, untreated 0.619",0.267
same,efficacy (%),[3],95%
same,optical density at 620 nm,"[3]; blank 0.046, untreated 0.378",0.062
same,efficacy (%),Septoria glycines K5204,81%
same,optical density at 620 nm,"Septoria glycines K5204; blank 0.044, untreated 0.414",0.115
same,efficacy (%),Microdochium majus K7482,96%
same,optical density at 620 nm,"Microdochium majus K7482; blank 0.050, untreated 0.228",0.057
same,efficacy (%),[4],77%
same,optical density at 620 nm,"[4]; blank 0.055, untreated 0.235",0.096
same,efficacy (%),[5],92%
same,optical density at 620 nm,"[5]; blank 0.044, untreated 0.701",0.095
same,efficacy (%),[6],97%
same,optical density at 620 nm,"[6]; blank 0.044, untreated 0.304",0.051
same,efficacy (%),[7],60%
same,optical density at 620 nm,"[7]; blank 0.043, untreated 0.231",0.119
same,efficacy (%),Fusarium avenaceum K6940,52%
same,optical density at 620 nm,"Fusarium avenaceum K6940; blank 0.054, untreated 0.410",0.225
same,efficacy (%),Fusarium culmorum K6937,44%
same,optical density at 620 nm,"Fusarium culmorum K6937; blank 0.052, untreated 0.528",0.319
same,efficacy (%),[8],45%
same,optical density at 620 nm,"[8]; blank 0.046, untreated 0.373",0.225
same,efficacy (%),[9],100%
same,optical density at 620 nm,"[9]; blank 0.044, untreated 0.215",0.043
same,efficacy (%),[10],56%
same,optical density at 620 nm,"[10]; blank 0.035, untreated 0.449",0.218
same,efficacy (%),Cercospora sojina K5703,54%
same,optical density at 620 nm,"Cercospora sojina K5703; blank 0.047, untreated 0.357",0.188
same,efficacy (%),[11],68%
same,optical density at 620 nm,"[11]; blank 0.052, untreated 0.498",0.197
same,efficacy (%),[12],98%
same,optical density at 620 nm,"[12]; blank 0.054, untreated 0.253",0.059
same,efficacy (%),[13],47%
same,optical density at 620 nm,"[13]; blank 0.053, untreated 0.941",0.528
same,efficacy (%),[14],90%
same,optical density at 620 nm,"[14]; blank 0.054, untreated 0.233",0.073
same,efficacy (%),Fusarium culmorum K8196,48%
same,optical density at 620 nm,"Fusarium culmorum K8196; blank 0.055, untreated 0.701",0.388
same,control of fungal growth (%),Botrytis cinerea,90%
same,control of fungal growth (%),Zymoseptoria tritici,90%
